Source: patent US4254128A, “2-Adamantyl hydrazines and biocidal compositions thereof” (Teva Pharmaceutical Industries Ltd., priority 1977, dated 1981)
Counter-ions that a name gives are not always drawn. Like-named read-outs stand apart in the source and are kept apart here.

Experiments:
albino rats = assay: Antiparkinson activity (catalepsy produced by haloperidol); assay type: in vivo, Male Charles River albino rats; conditions: 80 mg/kg i.p.
Method: Male Charles River albino rats, weighing 200-250 g, were used. Catalepsy was produced by haloperidol, 5 mg/kg i.p. The animals were placed with their front paws on a horizontal bar, about 10 cm above the ground, and animals were considered cataleptic if not changing posture for at least 30 sec. Cataleptic animals were injected i.p. with one of the drugs at a dose of 40-80 mg/kg. Catalepsy was estimated again at the intervals indicated.

albino mice [1] = assay: Stereotyped behaviour in mice; assay type: in vivo, Male ICR albino mice; set-up: stereotyped behaviour score / Total Score / Mean Score: scale not given here; conditions: 50 mg/kg i.p.
Method: Male ICR albino mice weighing 25-30 g were put in cages with a metal grid floor, 4 in each cage. Drugs were injected intraperitoneally and stereotyped behaviour (sniffing, biting, repetitive head movement) was evaluated every 30 min.

albino mice [2] = assay: Stereotyped behaviour in mice; assay type: in vivo, Male ICR albino mice; set-up: scale not given here; conditions: 50 mg/kg i.p.
L. tropica promastigotes = assay: Anti leishmania test, promastigotes in vitro; assay type: cell-based; conditions: 27° C.
Method: (§1) b. promastigotes in Mc Coy's medium in vitro at 27° C.
+++=No viable parasites after 24 hours
++=No viable parasites after 48 hours
+=No viable parasites after 72 hours
±=No viable parasites after 96 hours p2 -=viable parasites after 120 hours.

Trypanosoma = assay: Anti trypanosoma test in vitro; assay type: cell-based; conditions: for Trypanosoma in vitro activity score: 37° C., scoring as in b (promastigotes); for activity against Trypanosoma: summary in words
Method: Trypanosoma in RPM1 medium in vitro at 37° C. Scoring as in b.

[3] = test system: Leptospira canicola Kipod 146; assay: Anti leptospiral activity (minimal inhibition concentration); assay type: cell-based; conditions: for MIC: Leptospira interrogans, KIPOD146, 240 h; for anti leptospiral activity: summary in words
Method: The tests were carried out under the following conditions:
Leptospira: Leptospira canicola Kipod 146
Inoculum: 1-10^5 cells/ml
Incubation time: 10 days, 28° C.
Evaluation: Direct count in dark field microscopy after 4,7 and 10 days.
2 Minimal+0.5% albumin (Pentex)
3 Korthof rich medium with 8% serum.
4 Korthof rich medium with 2% serum.

L. tropica amastigotes = assay: Anti leishmania test, amastigotes in peritoneal exudate cells in vitro; assay type: cell-based; conditions: 37° C.
Method: (§2) a. amastigotes in peritoneal exudate cells in Mc Coy's medium in vitro at 37° C.
+++=clearance of all parasites in 24 hours
++=clearance of all parasites in 48 hours
+=clearance of all parasites in 72 hours
±=Partial clearance of parasites in 72 hours or more
-=No activity against parasites.

Leishmania = assay: Anti leishmania tests, summary; assay type: cell-based, L. tropica; conditions: summary in words
Method: as §2, §1

HSV-1 (Herpes Simplex) = assay: Inhibition test on HSV replication; assay type: cell-based
From the text: BSC-1 (Green monkey kidney)
**% Inhibition of control infected for some time with same virus PFV with […]

[4] = Toxic limit in the HSV replication test; conditions: monkey, bsc-1 cells
[5] = minimal + Pentex (0.5% albumin)

NC12CC3CC(CC(C3)C1)C2 [Symmetrel, reference compound]
anticataleptic effect (albino rats; rat 1): 0/4
anticataleptic effect (albino rats; rat 2): 2/4
anticataleptic effect (albino rats; rat 3): 3/4
anticataleptic effect (albino rats; rat 4): 3/4
anticataleptic effect (albino rats; rat 5): 3/4
stereotyped behaviour score (albino mice [1]; 0 min, mouse 1): 0
stereotyped behaviour score (albino mice [1]; 0 min, mouse 2): 0
stereotyped behaviour score (albino mice [1]; 0 min, mouse 3): 0
stereotyped behaviour score (albino mice [1]; 0 min, mouse 4): 0
stereotyped behaviour score (albino mice [1]; 30 min, mouse 1): 1
stereotyped behaviour score (albino mice [1]; 30 min, mouse 2): 1
stereotyped behaviour score (albino mice [1]; 30 min, mouse 3): 1
stereotyped behaviour score (albino mice [1]; 30 min, mouse 4): 1
stereotyped behaviour score (albino mice [1]; 45 min, mouse 3): 1
stereotyped behaviour score (albino mice [1]; 45 min, mouse 4): 1
stereotyped behaviour score (albino mice [1]; 60 min, mouse 1): 2
stereotyped behaviour score (albino mice [1]; 60 min, mouse 2): 2
stereotyped behaviour score (albino mice [1]; 60 min, mouse 3): 1
stereotyped behaviour score (albino mice [1]; 60 min, mouse 4): 1
stereotyped behaviour score (albino mice [1]; 90 min, mouse 1): 1
stereotyped behaviour score (albino mice [1]; 90 min, mouse 2): 1
stereotyped behaviour score (albino mice [1]; 90 min, mouse 3): 2
stereotyped behaviour score (albino mice [1]; 90 min, mouse 4): 1
stereotyped behaviour score (albino mice [1]; 120 min, mouse 1): 2
stereotyped behaviour score (albino mice [1]; 120 min, mouse 2): 2
stereotyped behaviour score (albino mice [1]; 120 min, mouse 3): 2
stereotyped behaviour score (albino mice [1]; 120 min, mouse 4): 2
stereotyped behaviour score (albino mice [1]; 135 min, mouse 1): 2
stereotyped behaviour score (albino mice [1]; 135 min, mouse 2): 2
stereotyped behaviour score (albino mice [1]; 150 min, mouse 1): 2
stereotyped behaviour score (albino mice [1]; 150 min, mouse 2): 2
stereotyped behaviour score (albino mice [1]; 150 min, mouse 3): 2
stereotyped behaviour score (albino mice [1]; 150 min, mouse 4): 2
stereotyped behaviour score (albino mice [1]; 180 min, mouse 1): 2
stereotyped behaviour score (albino mice [1]; 180 min, mouse 2): 2
stereotyped behaviour score (albino mice [1]; 180 min, mouse 3): 2
stereotyped behaviour score (albino mice [1]; 180 min, mouse 4): 2
stereotyped behaviour score (albino mice [1]; 210 min, mouse 1): 2
stereotyped behaviour score (albino mice [1]; 210 min, mouse 2): 2
stereotyped behaviour score (albino mice [1]; 210 min, mouse 3): 2
stereotyped behaviour score (albino mice [1]; 210 min, mouse 4): 1
stereotyped behaviour score (albino mice [1]; 240 min, mouse 1): 2
stereotyped behaviour score (albino mice [1]; 240 min, mouse 2): 2
stereotyped behaviour score (albino mice [1]; 240 min, mouse 3): 2
stereotyped behaviour score (albino mice [1]; 240 min, mouse 4): 0
Mean Score (albino mice [1]; mean of 4 mice): 16
Total Score (albino mice [1]; mouse 1): 17
Total Score (albino mice [1]; mouse 2): 17
Total Score (albino mice [1]; mouse 3): 17
Total Score (albino mice [1]; mouse 4): 13
stereotyped behaviour score (albino mice [2]; 45 min, mouse 1): 1
stereotyped behaviour score (albino mice [2]; 45 min, mouse 2): 1
stereotyped behaviour score (albino mice [2]; 135 min, mouse 3): 2
stereotyped behaviour score (albino mice [2]; 135 min, mouse 4): 2

N=C(N)c1ccc(OCCCCCOc2ccc(C(=N)N)cc2)cc1 [Pentamidine, reference compound]
Leishmania promastigote activity score (L. tropica promastigotes; 10 μg): +++ (No viable parasites after 24 hours)
Leishmania promastigote activity score (L. tropica promastigotes; 100 μg): +++ (No viable parasites after 24 hours)
Trypanosoma in vitro activity score (Trypanosoma; 100 μg): ++ (No viable parasites after 48 hours)

CN(CC(=O)O)NC1C2CC3CC(C2)CC1C3 (centres unmarked) [Example 37, [2-(2'-Adamantyl)-1-methylhydrazino]acetic acid hydrochloride]
MIC ([3]; Korthof + 2% serum): 12.5 mg/L
MIC ([3]; Korthof + 8% serum): 12.5 to 25 mg/L
MIC [3, 5]: 25 mg/L
MIC ([3]; minimal medium): 25 mg/L
anti leptospiral activity [3]: active

CNNC1C2CC3CC(C2)CC1C3 (centres unmarked) [Example 25, 1-(2'-Adamantyl)-2-methylhydrazine hydrochloride]
Leishmania amastigote activity score (L. tropica amastigotes; 100 μg): ++ (clearance of all parasites in 48 hours)
Leishmania promastigote activity score (L. tropica promastigotes; 100 μg): +++ (No viable parasites after 24 hours)
activity against Leishmania (Leishmania): active

C1CCCN(NC2C3CC4CC(C3)CC2C4)CC1 (centres unmarked) [Example 11, 1-(2'-Adamantylamino)homopiperidine hydrochloride]
Trypanosoma in vitro activity score (Trypanosoma; 10 μg): + (No viable parasites after 72 hours)
Trypanosoma in vitro activity score (Trypanosoma; 100 μg): +++ (No viable parasites after 24 hours)
activity against Trypanosoma (Trypanosoma): active

CC(NNC1C2CC3CC(C2)CC1C3)C(=O)O (stereo not drawn) [Example 38, α-[2-(2'-Adamantyl)hydrazino]propionic acid hydrochloride]
Leishmania amastigote activity score (L. tropica amastigotes; 100 μg): ++ (clearance of all parasites in 48 hours)
Leishmania promastigote activity score (L. tropica promastigotes; 10 μg): ± (No viable parasites after 96 hours)
Leishmania promastigote activity score (L. tropica promastigotes; 100 μg): ++ (No viable parasites after 48 hours)
activity against Leishmania (Leishmania): active

NC12CC3CC(CC(C3)C1)C2 [Amant., Amantadine, reference compound]
inhibition at 50 µg/mL (HSV-1 (Herpes Simplex); Human alphaherpesvirus 1, BSC-1): 93%
MNTC [4]: 50 µg/mL

c1ccc(NNC2C3CC4CC(C3)CC2C4)nc1 (centres unmarked) [Example 8, 1-(2'-Adamantyl)-2-(2"-pyridyl)hydrazine hydrochloride]
Leishmania amastigote activity score (L. tropica amastigotes; 10 μg): + (clearance of all parasites in 72 hours)
Leishmania amastigote activity score (L. tropica amastigotes; 100 μg): +++ (clearance of all parasites in 24 hours)
Trypanosoma in vitro activity score (Trypanosoma; 10 μg): + (No viable parasites after 72 hours)
Trypanosoma in vitro activity score (Trypanosoma; 100 μg): +++ (No viable parasites after 24 hours)
activity against Trypanosoma (Trypanosoma): active
activity against Leishmania (Leishmania): active

CN(C)NC1C2CC3CC(C2)CC1C3 (centres unmarked) [Example 1, 1-(2'-Adamantyl)-2,2-dimethylhydrazine hydrochloride]
MIC ([3]; Korthof + 8% serum): 12.5 mg/L
MIC [3, 5]: 12.5 mg/L
MIC ([3]; minimal medium): 12.5 mg/L
anti leptospiral activity [3]: active

FC(F)(F)c1cccc(NNC2C3CC4CC(C3)CC2C4)c1 (centres unmarked) [Example 6, 1-(2'-Adamantyl)-2-(m-trifluoromethylphenyl)hydrazine hydrochloride]
MIC ([3]; Korthof + 8% serum): 50 mg/L
MIC ([3]; minimal medium): 12.5 mg/L
anti leptospiral activity [3]: active

CNN(C)C1C2CC3CC(C2)CC1C3 (centres unmarked) [Example 49, 1-(2'-Adamantyl)-1,2-dimethylhydrazine hydrochloride]
Trypanosoma in vitro activity score (Trypanosoma; 100 μg): ++ (No viable parasites after 48 hours)
activity against Trypanosoma (Trypanosoma): active
inhibition at 50 µg/mL (HSV-1 (Herpes Simplex); Human alphaherpesvirus 1, 50 μg/ml, BSC-1 cells, 10 PFU/cell, read-out: % Inhibition): 60%
inhibition at 100 µg/mL (HSV-1 (Herpes Simplex); Human alphaherpesvirus 1, 100 μg/ml, BSC-1 cells, 10 PFU/cell): 92%
inhibition at 200 µg/mL (HSV-1 (Herpes Simplex); Human alphaherpesvirus 1, 200 μg/ml, BSC-1 cells, 10 PFU/cell): 99.9%
MNTC [4]: 100 µg/mL

c1ccc(NNC2C3CC4CC(C3)CC2C4)cc1 (centres unmarked) [Example 3, 1-(2'-Adamantyl)-2-phenylhydrazine hydrochloride]
MIC ([3]; Korthof + 8% serum): 100 mg/L
MIC ([3]; minimal medium): 6.25 mg/L
anti leptospiral activity [3]: active
Trypanosoma in vitro activity score (Trypanosoma; 10 μg): + (No viable parasites after 72 hours)
Trypanosoma in vitro activity score (Trypanosoma; 100 μg): +++ (No viable parasites after 24 hours)
activity against Trypanosoma (Trypanosoma): active

CC(C)NNC1C2CC3CC(C2)CC1C3 (centres unmarked) [Example 51, 1-(2'-Adamantyl)-2-isopropylhydrazine hydrochloride]
Leishmania amastigote activity score (L. tropica amastigotes; 10 μg): ± (Partial clearance of parasites in 72 hours or more)
Leishmania amastigote activity score (L. tropica amastigotes; 100 μg): ++ (clearance of all parasites in 48 hours)
Trypanosoma in vitro activity score (Trypanosoma; 100 μg): +++ (No viable parasites after 24 hours)
activity against Trypanosoma (Trypanosoma): active
activity against Leishmania (Leishmania): active
